Patent US20230411006A1, “METHOD FOR ASSESSING THE AREA UNDER THE CURVE OF AN IMMUNOSUPRESSANT AND ASSOCIATED METHOD AND SYSTEMS” (INSTITUT NATIONAL DE LA SANTE ET DE LA RECHERCHE MEDICALE, priority 2020, published 2023)
Read-outs that look alike come from different tables or passages of the source.

Assays:
[1] = Mycophenolic acid interdose AUC0-12 h in ISBA requests (MPA plasma levels after MMF dose); format: in vivo, human; settings: for AUC: human, plasma, oral, Median, read-out: Interdose AUC0_12 h
Protocol: For patients and data, the dataset was sequentially refined by selecting the requests where MPA plasma levels were measured using HPLC, including at least 3 times of sampling approximately 20 min (10 to 30 min, C20), 60 min (30 to 100 min, C1) and 180 min (140 to 220 min, C3) after dose intake. Actually, the 20, 60, 180 min is the optimal sampling schedule for MMF. A filter was applied to select the requests with an interdose of 12 h. The other predictors available were the morning dose of MMF, the time elapsed between transplantation and MPA plasma sampling, the type of transplant, the associated immunosuppressant and patient age.

[2] = Tacrolimus concentrations and interdose AUC in ISBA requests of renal transplant patients; settings: human, in vivo, oral; for concentration at 3 h: read-out: Concentration C3 at 3 h; for concentration at 1 h: read-out: Concentration C1 at 1 h; for C0: read-out: Through level C0
Protocol: Tacrolimus requests from ISBA website were extracted and cleaned using the tidyverse framework. Patient with a renal transplantation and tacrolimus concentrations measured using HPLC methods were selected. The requests including at least 3 sample times at 0 minutes (min), 60 min and 180 min after dose intake were selected with a range of selection of 30 min to 100 min for the 60 min and 140 min to 220 min for the 180 min (the 0, 60, 180 min is the optimal sampling schedule for Prograf® and Advagraf® while the optimal sampling times requested for Envarsus® is 0, 8 and 12 h after dose intake and this later formulation was not included in the analysis).
The dataset was split into two datasets according to the tacrolimus interdose and two independent prediction functions were developed, one for twice a day formulations (TAD; Prograf®) and one for once a day formulations (OAD; Advagraf®).
The present study used supervised learning to predict the inter-dose AUC for which the reference value have been obtained by MAP-BE in the ISBA website based on 3 concentrations.
The tacrolimus concentrations were binned into 3 theoretical time classes (concentrations at trough (C0 sampled at t=0 min), at 1 h (C1 sampled between 30 and 100 min) and at 3 h (C3 sampled between 140 and 220 min), leading to 3 columns per patient.

COc1c(C)c2c(c(O)c1C/C=C(\C)CCC(=O)O)C(=O)OC2 [mycophenolic acid]
Interdose AUC0_12 h ([1]; Maximum, TEST (N = 3219)): 163.62 mg·h/L
Interdose AUC0_12 h ([1]; Maximum, TRAIN (N = 9658)): 181.39 mg·h/L
Interdose AUC0_12 h ([1]; Minimum, TEST (N = 3219)): 3.19 mg·h/L
Interdose AUC0_12 h ([1]; Minimum, TRAIN (N = 9658)): 1.12 mg·h/L
AUC ([1]; TEST (N = 3219)): 39200 ng·h/mL
AUC ([1]; TRAIN (N = 9658)): 39300 ng·h/mL

C=CC[C@@H]1/C=C(\C)C[C@H](C)C[C@H](OC)[C@H]2O[C@@](O)(C(=O)C(=O)N3CCCC[C@H]3C(=O)O[C@H](/C(C)=C/[C@@H]3CC[C@@H](O)[C@H](OC)C3)[C@H](C)[C@@H](O)CC1=O)[C@H](C)C[C@@H]2OC [tacrolimus]
concentration at 3 h ([2]; Maximum, OAD, Test (n = 394)): 17.9 ng/mL
concentration at 3 h ([2]; Maximum, OAD, Train (n = 1184)): 18.4 ng/mL
concentration at 3 h ([2]; Maximum, TAD, Test (n = 1236)): 16.9 ng/mL
concentration at 3 h ([2]; Maximum, TAD, Train (n = 3708)): 16.6 ng/mL
concentration at 1 h ([2]; Maxmum, OAD, Test (n = 394)): 17.1 ng/mL
concentration at 1 h ([2]; Maxmum, OAD, Train (n = 1184)): 18.4 ng/mL
concentration at 1 h ([2]; Maxmum, TAD, Test (n = 1236)): 21.7 ng/mL
concentration at 1 h ([2]; Maxmum, TAD, Train (n = 3708)): 21.4 ng/mL
concentration at 1 h ([2]; Median, OAD, Test (n = 394)): 12.3 ng/mL
concentration at 3 h ([2]; Median, OAD, Test (n = 394)): 13 ng/mL
AUC ([2]; Median, OAD, Test (n = 394), read-out: Interdose AuC): 222 ng·h/mL
C0 ([2]; Median, OAD, Test (n = 394)): 12.3 ng/mL
concentration at 1 h ([2]; Median, OAD, Train (n = 1184)): 12.6 ng/mL
concentration at 3 h ([2]; Median, OAD, Train (n = 1184)): 13.9 ng/mL
AUC ([2]; Median, OAD, Train (n = 1184), read-out: Interdose AuC): 236 ng·h/mL
C0 ([2]; Median, OAD, Train (n = 1184)): 12.6 ng/mL
concentration at 1 h ([2]; Median, TAD, Test (n = 1236)): 15.4 ng/mL
concentration at 3 h ([2]; Median, TAD, Test (n = 1236)): 12.8 ng/mL
AUC ([2]; Median, TAD, Test (n = 1236), read-out: Interdose AuC): 130 ng·h/mL
C0 ([2]; Median, TAD, Test (n = 1236)): 15.4 ng/mL
concentration at 1 h ([2]; Median, TAD, Train (n = 3708)): 14.7 ng/mL
concentration at 3 h ([2]; Median, TAD, Train (n = 3708)): 12.4 ng/mL
AUC ([2]; Median, TAD, Train (n = 3708), read-out: Interdose AuC): 128 ng·h/mL
C0 ([2]; Median, TAD, Train (n = 3708)): 14.7 ng/mL
concentration at 1 h ([2]; Minimum, OAD, Test (n = 394)): 8.6 ng/mL
concentration at 3 h ([2]; Minimum, OAD, Test (n = 394)): 9.51 ng/mL
concentration at 1 h ([2]; Minimum, OAD, Train (n = 1184)): 9 ng/mL
concentration at 3 h ([2]; Minimum, OAD, Train (n = 1184)): 9.8 ng/mL
concentration at 1 h ([2]; Minimum, TAD, Test (n = 1236)): 10.5 ng/mL
concentration at 3 h ([2]; Minimum, TAD, Test (n = 1236)): 9.6 ng/mL
concentration at 1 h ([2]; Minimum, TAD, Train (n = 3708)): 10.2 ng/mL
concentration at 3 h ([2]; Minimum, TAD, Train (n = 3708)): 9.3 ng/mL
AUC ([2]; OAD, cleaned ISBA datasets, read-out: interdose AUCs range): 44 to 698 ng·h/mL
AUC ([2]; TAD, cleaned ISBA datasets, read-out: interdose AUCs range): 22 to 380 ng·h/mL
